Measurements: patent US20100311827A1, “Chlorogenic acid derivatives and their use as anti-fungal agents” (priority 2006, published 2010)
Values after ≈ are worked out from the molar mass of the structure shown. Where two headings read alike, the source gives them in different places.

Legend:
Candida krusei ATCC6258 = assay: Broth dilution anti-fungal susceptibility, MIC (as in Example 24); type: cell-based
brine shrimp = type: in vivo
Method: The general in vitro toxicity of these compounds can be tested using the Brine Shrimp Lethality assay, as described in Mclaughlin, J. L. in Methods in Plant Biochemistry. Ed. K. Hostettmann, Academic Press, London, 1991; Vol. 6, pp. 1-32. Typically, candidate compounds are diluted in seawater to a suitable concentration and added to second instar larvae of Artemia salina. After a suitable period of time, for example 24 hours, the survivors are counted. In vitro acute toxicity testing of a compound of Formula I can also be performed using mammalian cell lines (see, for example, Ekwall, B., Ann. N.Y. Acad. Sci., (1983) 407:64-77). Selection of an appropriate cell line is dependent on the potential application of the candidate compound and can be readily determined by one skilled in the art.
To test the general toxicity of these compounds, Brine Shrimp Lethality assay was carried out according to Mclaughlin, J. L. in Methods in Plant Biochemistry. Ed. K. Hostettmann, Academic Press, London, 1991; Vol. 6, pp. 1-32. The compounds were tested at 100 μg/ml.

[1] = tested on: Cryptococcus neoformans (ATCC32045); assay: Broth dilution anti-fungal susceptibility (NCCLS M27-A2), MIC; type: cell-based; conditions: Table 1, MICs read at 80% inhibition, 35° C., 48 to 72 hours, tested 0.12 to 64 μg/ml
Method: (§1) The anti-fungal activity of the compounds according to the invention were evaluated against Candida albicans (ATCC90028), Cryptococcus neoformans (ATCC32045), and Aspergillus fumigatus (ATCC13073) according to NCCLS guidelines (NCCLS reference method for broth dilution anti-fungal susceptibility testing of yeasts; approved standard-second edition, M27-A2, National Committee for Clinical Laboratory Standards, Villanova, Pa. 2003; and NCCLS reference method for broth dilution anti-fungal susceptibility testing of filamentous fungi; approved standard, M38-A, National Committee for Clinical Laboratory Standards, Villanova, Pa. 2002).
(§2) The medium required for the evaluation of anti-fungal activity was prepared as follows. RPMI 1640 broth+MOPS, pH adjusted and filter sterilized. Sabouraud Dextrose Agar (SDA) plates were used for growing fungi.
(§3) All test or candidate compounds were prepared as 5 mg/ml stock solutions in DMSO and further diluted according to the NCCLS guidelines with sterile water or appropriate diluent. A working stock of 256 μg/ml was used to prepare 1:2 serial dilutions in 96-well plates.
(§4) The inoculums of fungi were prepared by making a direct sterile water suspension of colonies/spores from SDA plates. 0.1% Tween 20 was used for A. fumigatus for better dispersal of spores in suspension. For C. albicans and C. neoformans overnight cultures were used. A. fumigatus required longer incubation. Each fungal suspension was adjusted to read between 70 and 75% transmittance at 530 nm (0.5 McFarland Standard). These suspensions were further diluted 1/1000 in appropriate broth for inoculating the 96-well plates.
(§5) All plates were incubated at 35° C. for the following times: 18 hours to 24 hours for C. albicans, 48 hours for A. fumigatus, and 48 to 72 hours for C. neoformans.

[2] = tested on: Candida albicans (ATCC90028); assay: as above; type: cell-based; conditions: for MIC: Candida albicans, MICs read at 80% inhibition
Method: as §1, §2, §3, §4, §5

[3] = tested on: Aspergillus fumigatus (ATCC13073); assay: Broth dilution anti-fungal susceptibility of filamentous fungi (NCCLS M38-A), MIC; type: cell-based; conditions: Table 1, MICs read at 80% inhibition, 35° C., 48 hours, tested 0.12 to 64 μg/ml
Method: as §1, §2, §3, §4, §5

[4] = comparison in words, from Table 3

In the case of CCCCCCCCOc1ccc(NC(=O)C(NC(=O)C2(O)CC(O)C(O)C(OC(=O)/C=C/c3ccc(O)c(O)c3)C2)C(C)O)cc1 (stereo not drawn) [Compound 12], the MIC (Candida krusei ATCC6258; Pichia kudriavzevii, ATCC6258, Table 3 (Example 26), MICs read at 80% inhibition, 0.12 to 64 μg/ml, read-out: MIC C. krusei) is reported as 2 µg/mL (≈ 3.04 µM), the “inhibitory activity against C. krusei compared to chlorogenic acid” value (Candida krusei ATCC6258; [4]) is reported as “more potent inhibitory activity” and the “% BL (brine shrimp lethality)” value (brine shrimp; at 100 μg/ml) is reported as 12.5%. For the same compound, the “toxicity on brine shrimp compared to chlorogenic acid” value (brine shrimp; comparison in words, from Table 2) was “less toxicity”, the MIC [1] was 2 µg/mL (≈ 3.04 µM) and the MIC ([2]; ATCC90028, Table 1, 35° C., 18 to 24 hours, tested 0.12 to 64 μg/ml) was 8 µg/mL (≈ 12.1 µM). The MIC ([2]; ATCC90028, Table 3 (Example 26, additional testing), 0.12 to 64 μg/ml, read-out: MIC C. albicans) was 4 µg/mL (≈ 6.07 µM), the “inhibitory activity against C. albicans compared to chlorogenic acid” value [2, 4] was “more potent inhibitory activity” and the MIC [3] was over 64 µg/mL.
